The subject of one assay is tubulin. The assay can be described thus: Tubulin polymerization assay (ability to promote polymerization of tubulin). The assay is classed as biochemical. The text has this:
The kit is based upon an increase in quantum yield of florescence upon binding of a fluorophore to microtubules. […] Tubulin assembly may also be monitored by light scattering which is approximated by the apparent absorption at 350 nm. In the assay, BSA is employed to prevent aggregation and glycerol, which is a tubulin polymerization enhancer, is omitted from the kit to increase the signal to noise ratio. […]

The test system of the next assay is tumor cell lines. The assay can be described thus: Cytotoxicity assay (AlamarBlue, monolayer). The assay is classed as cell-based. How it is done:
Monolayer assays with tumor cell lines (MCF-7 breast carcinoma and HT-29 colorectal carcinoma from ATCC) were carried out in triplicate in 96-well plates with PMI1640 medium containing 5% fetal bovine serum, 100 U/ml penicillin and 100 μg/ml streptomycin. […] Exponentially growing cells (5,000 MCF-7 or HT-29; 1,500 HFF) were plated in 100 μl medium and incubated overnight (5% CO2, 37° C.). Compounds (20 pM to 20 μM final concentration, 6-8 doses) and vehicle (DMSO) controls were added and the incubation was continued for an additional 72 hours. […] EC50 values were generated from dose-response curves by a 4-parameter method using Softmax PRO software, Mean FC50s (±SD) represent the average of all tests carried out for all lots of a given compound.
1. Cells: • a. Breast tumor cell lines, MCF-7 and NCI/ADR-RES • b. Colon tumor cell lines: HCT-15 and HT-29 • c. Leukemia cell line K562 and K562/R • d. Non-small cell lung cancer cell line A549 • e. Human foreskin fibroblast cells (HFF) • f. Human umbilical vein endothelial cells (HUVEC)
2. Cell Culture: • a. All tumor cells were grown in RPMI1640 medium supplemented with 5% (v/v) fetal bovine serum and the antibiotics in a final concentration of 100 U/ml of penicillin and 100 μg/ml of streptomycin in an atmosphere of 5% CO2. • b. HFF and HUVEC were grown in the medium of FGM-2 and EGM-2 from Cambrex,
3. Cytotoxicity Assay: • a. Day 1: Cells growing exponentially were transferred to 96-well tissue culture plates. All cell types were plated at a density of 1,500-5,000 cells per well in 100 μl complete medium. • b. Day 2: 100 μl of experimental compounds in complete medium was added in triplicate wells, • c. Day 5; Cell growth inhibition was assayed using the AlamarBlue (BioSource, Camarillo, Calif.) signal reduction assay. Correlation between AlamarBlue and cell proliferation has been established in the literature. Compound concentration versus relative fluorescence units was plotted.
Detailed procedures for conducting the assays are provided herein and are known in the art.

For a further assay, the target named is T1, Pgp (Bos taurus, UniProt A0A3Q1MB23).
T1 construct: Bovine Brain Endothelial Cells (BBEC) express Pgp; endogenous in cells; host or cells: Bovine Brain Endothelial Cells (BBEC)
The experiment in a line: Rhodamine 123 uptake assay in Bovine Brain Endothelial Cells (BBEC). The assay is classed as cell-based. The following applies: 25 micromolar; for Rhodamine 123 uptake: 45 min incubation, fluorescence normalized to protein content, average. How it is done: Bovine Brain Endothelial Cells (BBEC) express Pgp and are commonly used as model for Blood Brain Barrier (BBB).
All compounds and controls were run in triplicates.
The experiment was run in two 24-wells plates. […] After addition of the test compounds, cells were incubated for 45 min. After this time the drug solutions were removed by aspiration. The monolayers were then rinsed three times with ice-cold PBSG and finally solubilized with 1 mL of lysing solution for 30 min.

The mark [1] stands for this setting: average %, relative to paclitaxel.
[2] abbreviates: average EC50, cell line not given, 72 hours incubation.

Where two headings read alike, the source gives them in different places.

T1 sequence (A0A3Q1MB23 1-1267): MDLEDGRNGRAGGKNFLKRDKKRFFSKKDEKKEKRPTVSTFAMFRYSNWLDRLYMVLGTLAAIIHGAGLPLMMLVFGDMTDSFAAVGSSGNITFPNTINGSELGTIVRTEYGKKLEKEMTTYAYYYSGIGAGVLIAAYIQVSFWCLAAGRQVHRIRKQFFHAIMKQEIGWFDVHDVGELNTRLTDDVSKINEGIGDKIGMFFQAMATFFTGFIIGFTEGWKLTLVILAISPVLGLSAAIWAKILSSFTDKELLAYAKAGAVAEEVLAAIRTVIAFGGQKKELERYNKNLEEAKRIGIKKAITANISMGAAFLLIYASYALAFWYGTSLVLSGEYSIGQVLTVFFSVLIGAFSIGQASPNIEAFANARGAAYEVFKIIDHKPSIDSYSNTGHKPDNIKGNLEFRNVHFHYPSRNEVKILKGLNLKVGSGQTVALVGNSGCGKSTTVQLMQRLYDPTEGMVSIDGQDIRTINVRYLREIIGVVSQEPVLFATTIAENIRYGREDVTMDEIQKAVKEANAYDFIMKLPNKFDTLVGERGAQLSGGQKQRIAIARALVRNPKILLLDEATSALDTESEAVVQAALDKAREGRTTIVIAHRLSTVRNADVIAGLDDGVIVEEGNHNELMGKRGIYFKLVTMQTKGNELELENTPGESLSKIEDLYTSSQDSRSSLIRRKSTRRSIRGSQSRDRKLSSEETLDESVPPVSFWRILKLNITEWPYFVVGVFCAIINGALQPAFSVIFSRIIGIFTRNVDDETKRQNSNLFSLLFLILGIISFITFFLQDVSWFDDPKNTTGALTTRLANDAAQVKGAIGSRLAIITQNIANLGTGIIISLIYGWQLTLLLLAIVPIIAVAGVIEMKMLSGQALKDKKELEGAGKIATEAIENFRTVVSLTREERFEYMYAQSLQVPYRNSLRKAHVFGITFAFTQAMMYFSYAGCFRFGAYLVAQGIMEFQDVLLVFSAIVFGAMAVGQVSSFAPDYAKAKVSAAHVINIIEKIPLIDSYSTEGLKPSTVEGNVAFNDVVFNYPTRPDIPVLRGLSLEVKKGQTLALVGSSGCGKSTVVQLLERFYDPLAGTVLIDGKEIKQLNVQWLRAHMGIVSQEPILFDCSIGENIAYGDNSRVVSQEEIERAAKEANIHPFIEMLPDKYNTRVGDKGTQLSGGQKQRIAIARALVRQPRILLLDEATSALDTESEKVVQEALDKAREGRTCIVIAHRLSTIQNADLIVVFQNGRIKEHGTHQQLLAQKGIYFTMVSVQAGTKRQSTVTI

For the compound `CC(=O)OC12COC1CC(O)C1(C)C(=O)C(OC(=O)N3CCOCC3)C3=C(C)C(OC(=O)C(O)C(NC(=O)c4ccccc4)c4ccccc4)CC(O)(C(OC(=O)c4ccccc4)C21)C3(C)C` (centres unmarked) [Compound 7, PXL-10Ca-Morpholine], the “MPA: ability of the compound to promote polymerization of tubulin, expressed as percentage of the activity of paclitaxel” value with tubulin is given as “a (key: a > 70%; b = 30-70%; c < 40%)”. In the assay with tumor cell lines, this compound came in with an EC50 of 10 to 500 nM.

On to `CC(=O)OC12COC1CC(O)C1(C)C(=O)C(OC(=O)n3cnc4ccccc43)C3=C(C)C(OC(=O)C(O)C(NC(=O)c4ccccc4)c4ccccc4)CC(O)(C(OC(=O)c4ccccc4)C21)C3(C)C` (centres unmarked) [Compound 8, 10-O-deacetyl-paclitaxel-10-O-carbonyl-N-benzimidazole], for which, in the assay with tubulin (setting [1]), the “MPA: ability of the compound to promote polymerization of tubulin, expressed as percentage of the activity of paclitaxel” value is given as “b (b = 30-70%)”.

Consider `CC(=O)OC12COC1CC(O)C1(C)C(=O)C(OC(=O)NCC(=O)O)C3=C(C)C(OC(=O)C(O)C(NC(=O)c4ccccc4)c4ccccc4)CC(O)(C(OC(=O)c4ccccc4)C21)C3(C)C` (centres unmarked) [Compound 12, PXL-10Ca-Gly-OH], for which, in the assay with tumor cell lines, the EC50 is > 500 nM. Also, the “Rhodamine 123 uptake” value at Pgp is “a (a < 0.25)”.

Regarding `CC(=O)OC12COC1CC(O)C1(C)C(=O)C(OC(=O)N(C)CC(=O)O)C3=C(C)C(OC(=O)C(O)C(NC(=O)c4ccccc4)c4ccccc4)CC(O)(C(OC(=O)c4ccccc4)C21)C3(C)C` (centres unmarked) [Compound 13, PXL-10Ca-Sar-OH], in the assay with tumor cell lines (setting [2]), the EC50 is > 500 nM. Besides, the “Rhodamine 123 uptake” value at Pgp is “b (b = >0.25)”.

For the compound `COC(=O)C(C)NC(=O)OC1C(=O)C2(C)C(O)CC3OCC3(OC(C)=O)C2C(OC(=O)c2ccccc2)C2(O)CC(OC(=O)C(O)C(NC(=O)c3ccccc3)c3ccccc3)C(C)=C1C2(C)C` (centres unmarked) [Compound 39, PXL-10Ca-alanine-Me-ester], in the assay with tumor cell lines, the EC50 is < 10 nM.

Turning to `CC(=O)O[C@H]1C(=O)[C@@]2(C)[C@H]([C@H](OC(=O)c3ccccc3)[C@]3(O)C[C@H](OC(=O)[C@H](O)[C@@H](NC(=O)c4ccccc4)c4ccccc4)C(C)=C1C3(C)C)[C@]1(OC(C)=O)CO[C@@H]1C[C@@H]2O` [PXL, Paclitaxel, reference compound], at Pgp, the “effect on rhodamine uptake (in words)” value is listed as “higher rhodamine uptake” and the “Rhodamine 123 uptake” value is recorded as “b (b = >0.25)”.

The compound PXL-10Ca-Glu had an EC50 with tumor cell lines (setting [2]) of 10 to 500 nM.

With PXL-10Ca-Glucosamine [Compound 5], in the assay on tubulin (setting [1]), the “MPA: ability of the compound to promote polymerization of tubulin, expressed as percentage of the activity of paclitaxel” value is “a (a > 70%)”. Also, in the assay with tumor cell lines (setting [2]), the EC50 is > 500 nM.

As to PXL-10Ca-Gly(tBu) [Compound 14], in the assay with tubulin (setting [1]), the “MPA: ability of the compound to promote polymerization of tubulin, expressed as percentage of the activity of paclitaxel” value is on record as “b (b = 30-70%)”. Also, in the assay on tumor cell lines (setting [2]), the EC50 lay within 10 to 500 nM. On Pgp, the “Rhodamine 123 uptake” value was “b (b = >0.25)”.

On to PXL-10Ca-Gly-N(Me)2 [Compound 15], for which the EC50 in the assay with tumor cell lines (setting [2]) was 10 to 500 nM. The “Rhodamine 123 uptake” value at Pgp is “a (a < 0.25)”.

PXL-10Ca-H-Lys-OH [Compound 20]: the “MPA: ability of the compound to promote polymerization of tubulin, expressed as percentage of the activity of paclitaxel” value in the assay on tubulin (setting [1]) is “a (a > 70%)”. Besides, the EC50 in the assay on tumor cell lines (setting [2]) is > 500 nM.

With “PXL-10Ca-N-methyl-N-butylamine [Compound 22]”, the “MPA: ability of the compound to promote polymerization of tubulin, expressed as percentage of the activity of paclitaxel” value in the assay on tubulin (setting [1]) is on record as “a (a > 70%)”. The EC50 in the assay with tumor cell lines (setting [2]) is < 10 nM.

With PXL-10Ca-PEG6000-10Ca-PXL [Compound 29], in the assay on tubulin (setting [1]), the “MPA: ability of the compound to promote polymerization of tubulin, expressed as percentage of the activity of paclitaxel” value is “a (a > 70%)”.

Regarding PXL-10Ca-PEG(14)-COOH [Compound 25], the “MPA: ability of the compound to promote polymerization of tubulin, expressed as percentage of the activity of paclitaxel” value in the assay with tubulin (setting [1]) is on record as “a (a > 70%)”. Also, the EC50 with tumor cell lines (setting [2]) was > 500 nM.

On to PXL-10Ca-PEG(29)-VBL [Compound 28], for which, in the assay with tubulin (relative to paclitaxel, given as number), the “MPA: ability of the compound to promote polymerization of tubulin, expressed as percentage of the activity of paclitaxel” value is on record as 40%. In addition, the EC50 in the assay on tumor cell lines (setting [2]) was 10 to 500 nM.

On to PXL-10Ca-Ph-acetic acid [Compound 10], for which the “MPA: ability of the compound to promote polymerization of tubulin, expressed as percentage of the activity of paclitaxel” value with tubulin (setting [1]) was “a (a > 70%)”. In addition, in the assay on tumor cell lines (setting [2]), the EC50 is > 500 nM.

With PXL-10Ca-Z-Lys-OH [Compound 19], the “MPA: ability of the compound to promote polymerization of tubulin, expressed as percentage of the activity of paclitaxel” value in the assay on tubulin (setting [1]) is “a (a > 70%)”. Besides, the EC50 in the assay with tumor cell lines (setting [2]) is > 500 nM.

As for PXL-10Ca-aniline [Compound 9], the “MPA: ability of the compound to promote polymerization of tubulin, expressed as percentage of the activity of paclitaxel” value in the assay on tubulin (setting [1]) is “b (b = 30-70%)”. In the assay with tumor cell lines (setting [2]), this compound came in with a 50% effective concentration (EC50) of 10 to 500 nM.

For the compound PXL-10Ca-di-Et-amine [Compound 23], the “MPA: ability of the compound to promote polymerization of tubulin, expressed as percentage of the activity of paclitaxel” value in the assay with tubulin (setting [1]) is given as “c (c < 40%)”. In the assay with tumor cell lines (setting [2]), this compound showed an EC50 of 10 to 500 nM.

Consider PXL-10Ca-p-NO2-aniline [Compound 18], for which the “MPA: ability of the compound to promote polymerization of tubulin, expressed as percentage of the activity of paclitaxel” value in the assay on tubulin (setting [1]) is listed as “b (b = 30-70%)”. In the assay with tumor cell lines (setting [2]), this compound registered an EC50 of 10 to 500 nM.

For PXL-10Ca-piperidine [Compound 6], the “MPA: ability of the compound to promote polymerization of tubulin, expressed as percentage of the activity of paclitaxel” value in the assay on tubulin (setting [1]) is reported as “b (b = 30-70%)”. In the assay on tumor cell lines (setting [2]), the EC50 is < 10 nM.

For PXL-10CaSpermine [Compound 16], the “MPA: ability of the compound to promote polymerization of tubulin, expressed as percentage of the activity of paclitaxel” value in the assay on tubulin (setting [1]) is listed as “a (a > 70%)”. Moreover, the EC50 in the assay with tumor cell lines is > 500 nM.

Source of the values: patent publication US8138361B2, “C-10 carbamates of taxanes” (The Trustees Of The University Of Pennsylvania, priority 2005, dated 2012).
